Laboratory results: publication PMC10447463, “Data-mining unveils structure–property–activity correlation of viral infectivity enhancing self-assembling peptides” (Nature Communications, 2023)

Columns and labels:
[1] = Zeta-potential measurement; type: physicochemical; conditions: for Zeta pot. / mV: 1 mg/mL in PBS pH 7.4 from 10 mg/mL DMSO stock, 1 d RT, 60 µL diluted in 600 µL 1 mM KCl, Zetasizer Nano ZS, Smoluchowski, mean of triplicate; for Zeta-Potential / mV: mean
Procedure, shortened: (§1)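 One-day room-temperature aggregation at 1 mg/mL in PBS (pH 7.4) preceded measurement; samples then went into 1 mM KCl. Triplicates per sample, two independent experiments averaged.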

[2] = type: physicochemical; design: key to Fibril / Fibril Formation / TEM 2cat / Fibril: 1 = fibrils present; 0 non-fibrillar structures; conditions: for Fibril / Fibril Formation: TEM, 1 mg/mL, uranyl acetate stain, qualitative
[3] = Turbidity, derived count rate of scattered light; type: physicochemical; conditions: for Count Rate / kcps: derived count rate of scattered light at 633 nm, 173°, from zeta-potential measurement, 0.1 mg/mL in 1 mM KCl after 1 d at 1 mg/mL in PBS, turbidity / microscopic aggregation, mean of triplicate
Procedure, shortened: as §1

[4] = test system: HIV-1 infection of TZM-bl cells; assay: HIV-1 infectivity enhancement assay, β-galactosidase luminescence; type: cell-based; conditions: for Log10 Infection Rel EF-C: log10 of infection relative to EF-C
[5] = log10 of derived count rate of scattered light, Figure 6C
[6] = logarithm of count rate in kcps
[7] = n-fold infection vs virus only, relative to that of EF-C, 1.3 µM peptide
[8] = HIV-1 infection relative to EF-C, Fig 23 plot, panels A and B, mean of 3 values
[9] = HIV-1 infection relative to EF-C, Fig 23 plot, single data point, replicate 1
[10] = HIV-1 infection relative to EF-C, Fig 23 plot, single data point, replicate 2
[11] = HIV-1 infection relative to EF-C, Fig 23 plot, single data point, replicate 3

Substance	Zeta pot. / mV [1]	Zeta-Potential / mV ([1]; Figure 6C)	Fibril / Fibril Formation [2]	Count Rate / kcps [3]	Log10 Count Rate [3, 5]	Log10 Count Rate [3, 6]	Log10 Infection Rel EF-C ([4]; Figure 6C)	Inf. rel. EF-C [4, 7]	Zeta-Potential / mV ([1]; Figure 7B)	Log10 Infection Rel EF-C ([4]; Figure 7B)	Inf. rel. EF-C [4, 8]	Inf. rel. EF-C [4, 9]	Inf. rel. EF-C [4, 10]	Inf. rel. EF-C [4, 11]	other results
RIRFHIW	0.107 mV	0.107 mV	0	12.4 kcps	1.093	1.093	-1.984	0.01	–	–	–	–	–	–	–
RLRLTLC [CN13]	–	–	–	–	–	–	–	–	–	–	–	–	–	–	Zeta Pot. / mV [1]: 19.67 mV; Zeta category ( +1 = if > 4 mV;-1 = if < -4 mV; 0 = -4mV to 4 mV) [1]: 1 (+1 = if > 4 mV); Zeta-pot. / mV ([1]; zeta potential of peptide, Fig S15 source data): 19.67 mV; TEM: 1= fibrils, 0= aggregates (micelle), 0.5 = aggregates and fibrils, -1 = nothing obersved, STD prep ([2]; STD prep): 1; Zeta Count Rate Category ([3]; category 1 / 0, no key given): 1; Zeta Count Rate / kcps ([3]; derived count rate of scattered light): 125.6 kcps; Absolute Infectivity / RLU /s (Feb2021) ([4]; Feb2021, figures match the 1.3 µM column): 1334 RLU /s; n-fold to virus (Feb2021) ([4]; Feb2021, infectivity relative to virus only): 2.165; Log10 of Rel to EFC (Feb2021) ([4]; Feb2021, log10 of infectivity relative to EF-C): -1.288; Rel-to EFC (Feb-2021) ([4]; Feb2021, n-fold infectivity relative to EF-C): 0.05153; infectivity ([4]; infectivity class (low / medium / high) of each library peptide, main list in c1-c6, same classes repeated in sub-lists of sequences containing the hydrophobicity/charge patterns P+,H0,P+,H0,P0,H0,P0, P+,H0,P0,H0,P0,H0,P0, P+,H0,P0,H0): low; Log10 Inf. rel. to EF-C ([4]; log10 of HIV-1 infection of TZM-bl cells relative to EF-C, Fig S15 source data, asymmetric std dev errors): -1.288
RQGNINIVA [reference compound]	10.2 mV	–	1	36 kcps	–	–	–	0.12	10.17 mV	-0.93	–	–	–	–	infectivity enhancement, in words ([4]; fibril-forming peptides with positive zeta-potential, low count rate): do not enhance infectivity
RVHLGLG	-6.01 mV	-6.01 mV	1	28.33 kcps	1.4523	1.4523	-1.686	0.02	–	–	0.0206	0.01527	0.01985	0.02667	–
RVRVTVT	-3.713 mV	-3.713 mV	0	25.33 kcps	1.404	1.404	-1.225	0.06	–	–	0.05962	0.04632	0.07129	0.06124	–
VHDCVNITIK [reference compound]	–	–	1	12542 kcps	–	–	–	0.53	9.27 mV	-0.27	–	–	–	–	Abs Infection at 0.26µM ([4]; peptide 0.26 µM, mean of n = 3, Figure 7A): 46666.66667; Abs Infection at 1.3 µM ([4]; peptide 1.3 µM, mean of n = 3, Figure 7A): 86910; Abs Infection at 6.5 µM ([4]; peptide 6.5 µM, mean of n = 3, Figure 7A): 136243.3333
